# Experimental data as given in US20100255580A1, “Differentiation of Human Embryonic Stem Cells” (LIFESCCAN, INC., priority 2007, published 2010).
# Tests used:
# Assay type in all cases: cell-based
# [1] = tested on: human embryonic stem cells (H9, H7) on MATRIGEL; assay: Real-time PCR of definitive endoderm markers, DE protocol on […] or fibronectin (feeder-free); conditions: for expression of definitive endoderm markers: with 50 ng/ml of AA, 20 ng/ml Wnt-3A or 100 nM GSK-3B inhibitor IX
# Method: Real-time PCR amplification and quantitative analysis.
# Final data were expressed relative to a calibrator sample.
# Differentiation of embryonic stem cells to definitive endoderm was carried out as previously described in Nature Biotechnology 23, 1534-1541 (December 2005). […] In all subsequent examples unless otherwise noted, this treatment regimen will be referred to as the definite endoderm (DE) protocol. In parallel, H9, H7, or H1 cells cultured on MEF feeders were also exposed to the same DE protocol outlined above.
# At day 5, the cultures were analyzed by FACS for CXCR4, E-cadherin, CD9, CD99, and N-cadherin (CD56) expression and by real time PCR for SOX-17, SOX-7, Alpha-fetal protein (AFP), CXCR4, Brychyury (Bry), gooscecoid (GSC), HNF-3 beta, and GATA4. AFP and SOX-7 are regarded as visceral endoderm markers while GATA4, HNF-3beta and SOX-17 represent definite endoderm markers and GSC, Bry, and CXCR4 represent markers of primitive streak.
# In some of the cultures 20 ng/ml Wnt-3a (Catalog #1324-WN-002, R&D Systems, MN), 20 ng/ml Wnt-5a (Catalog #654-WN-010, R&D Systems, MN), 25 ng/ml Wnt-7a (Catalog #3008-WN-025, R&D Systems, MN), or 25 ng/ml Wnt-5b (Catalog #3006-WN-025, R&D Systems, MN) was added throughout the five day treatment. FIG. 24 depicts phase contrast images of H9P46 definitive endoderm culture in the presence of high concentration of (a) AA or (b) AA+20 ng/ml Wnt-3a. FIG. 25 depicts the expression of CXCR4 by FACS at day 5 for H7P44, and H9P46 lines cultured on […] (1:30 dilution) and exposed to the DE protocol+Wnt-3a (FIG. 25, panels b and d) and −Wnt-3a (FIG. 25, panels a and c).
# Control cultures were not treated with Wnt-3a. FIG. 27, panel a depicts the expression of CXCR4 by FACS at day 5 in the absence of Wnt-3a, b) 10 ng/ml Wnt-3a, c) 20 ng/ml Wnt-3a and d) 50 ng/ml Wnt-3a. In the absence of Wnt-3a the expression of CXCR4 was very low. […] Real-time PCR results (FIG. 28, panel a) also confirm this finding.
# In a separate study, H9 p52 cells were plated on 1:30 low growth factor […]™. For the first 2 days of the DE protocol a range of Wnt3A doses was used: 10 ng/ml, 5 ng/ml and 1 ng/ml. […] The number of cells at the end of the experiment is noted in FIG. 28, panel c.
# In order to confirm that the effect of Wnt-3a was through the Wnt pathway, a GSK-3 inhibitor was used to activate the downstream targets of Wnt, such as beta catenin. […] FIG. 29, panel a depicts the expression of CXCR4 by FACS at day 5 in the absence of Wnt-3a or GSK-3B inhibitor, b) +20 ng/ml Wnt-3a, c) +1000 nM GSK-3B inhibitor IX, d) +500 nM GSK-3B inhibitor IX, e) +100 nM GSK-3B inhibitor IX, f) +10 nM GSK-3B inhibitor IX, g) +100 nM GSK-3B inhibitor IX for days 1-2, and h) +10 nM GSK-3B inhibitor IX for days 1-2.
# FIG. 31 panels a-d is for H9P49 cells and panels e-f is for H1P46 cells.
# Results are expressed as fold increase over untreated cells. […] Results are expressed as fold increase over untreated cells.
# H9P55 cells were grown and differentiated on human fibronectin or regular growth factor […]™ (BD Biosciences). lml of DMEM/F12 (Invitrogen/GIBCO) containing 1 ug/ml of human fibronectin (R&D systems, MN) was added to each well of 6 well tissue culture treated dish. Alternatively, regular growth factor […]™ was diluted 1:10 in DMEM/F12 and 1 ml of diluted […]™ was added to each well of 6 well tissue culture treated dish. Cells were passed with collagenase. […] Real-time PCR results (FIG. 39) confirm that formation of definitive endoderm was equivalent on fibronectin and […]™ coated plates.
# To determine if the addition of Wnt-3a was causing the increase in differentiation, an inhibitor of Wnt-3 signaling was added to the cultures. […] H9 cells were cultured on plates coated with Growth Factor Reduced […] at a 1:30 dilution. The plates were coated with […] for 1 hr at room temperature. […]
# [2] = tested on: human embryonic stem cell line H9; assay: FACS of CXCR4 and CD9, H9 maintained on […] and differentiated on MEFs (Example 25); conditions: for CXCR4 positive cells (FACS): without (label Activin A) or with Wnt3a
# Method: Adhered cells were removed from culture plates by five-minute incubation with TrypLE™ Express solution (Invitrogen, CA). Released cells were resuspended in human embryonic stem cell culture medium and recovered by centrifugation, followed by washing and resuspending the cells in a staining buffer consisting of 2% BSA, 0.05% sodium azide in PBS (Sigma, MO). As appropriate, the cells were Fc-receptor blocked for 15 minutes using a 0.1% γ-globulin (Sigma) solution. […] Controls included appropriate isotype matched antibodies, unstained cells, and cells stained only with secondary conjugated antibody. All incubations with antibodies were performed for 30 mins at 4° C. after which the cells were washed with the staining buffer. Samples that were stained with unconjugated primary antibodies were incubated for an additional 30 mins at 4° C. with secondary conjugated PE or -APC labeled antibodies. See Table I for a list of secondary antibodies used. Washed cells were pelleted and resuspended in the staining buffer, and the cell surface molecules were identified using a FACS Array (BD Biosciences) instrument, collecting at least 10,000 events.
# (§1) Cells from the human embryonic stem cell line H9 cultured on […]™ for at least five passages were seeded onto MEF feeders in ES media.
# (§2) At day 3 and 5, the cultures were analyzed by real time PCR for SOX-17, SOX-7, Alpha-fetal protein (AFP), CXCR4, Brychyury (Bry), gooscecoid (GSC), HNF-3 beta, GATA4, hTERT and Oct4. AFP and SOX-7 are regarded as visceral endoderm markers while GATA4, HNF-3beta and SOX-17 represent definite endoderm markers and GSC, Bry, and CXCR4 represent markers of primitive streak. hTERT and Oct-4 are markers for self renewal and pluripotency respectively. FACS analysis was also performed at day 3 and 5.
# [3] = tested on: human embryonic stem cell line H9; assay: Real-time PCR, H9 maintained on […] and differentiated on MEFs (Example 25)
# Method: as §1, §2
# [4] = day 3, high concentration of Activin A
# [5] = day 5, high concentration of activin A
Molecule,"definitive endoderm markers (real-time PCR) ([1]; H7 and H9, low serum+AA+/−Wnt ligands, 5 days)",expression of definitive endoderm markers ([1]; H9P49),"Wnt3a dose sufficient to reach optimal cell expansion and definitive endoderm differentiation ([1]; H9 p52, for 2 days) [ng/mL]","role in differentiation of human embryonic stem cells, cultured on MEFs, to definitive endoderm [2]","CXCR4 positive cells (FACS) [2, 4]","CXCR4 positive cells (FACS) [2, 5]","AFP expression ([3]; Wnt3a 20 ng/ml added to 100 ng/ml activin A, increases over time)","outcome of lower doses of activin A ([1]; H9P49, with Wnt-3a or GSK-3B inhibitor IX)","AFP expression ([3]; lower concentration of Activin A, regardless of Wnt3a)"
Wnt-3a,significant upregulation,robust expression,10,does not appear to play a significant role,23-33%,43-51%,increase in the expression of AFP,–,–
Activin A: a member of the TGFβ superfamily; R&D Systems; Group 2 = Activin A (100 ng/ml),–,–,–,–,32-42%,28-32%,–,formation of extraembryonic endoderm,very high
"O=C1Nc2cc(Br)ccc2/C1=C1/Nc2ccccc2/C1=N\O [GSK-3B inhibitor IX, reference compound]",–,robust expression,–,–,–,–,–,–,–
